Measurements: US9783536B2, “Nitrogen-containing heterocyclic compound or salt thereof” (FUJIFILM Corporation, priority 2013, dated 2017)
Where a name gives a salt, the structure may show the parent alone.

Columns and labels:
Type in all cases: biochemical
[1] = molecular target: T1, GST fusion human ERK2 protein (Homo sapiens, UniProt P28482); assay: ERK2 enzyme assay (1); conditions: read-out: ERK2 enzyme inhibitory activity (1)
T1 construct: purchased Carna Biosciences, Inc; host or cells: E. coli expression system
T1 sequence (P28482 whole entry, the tested form may be a part): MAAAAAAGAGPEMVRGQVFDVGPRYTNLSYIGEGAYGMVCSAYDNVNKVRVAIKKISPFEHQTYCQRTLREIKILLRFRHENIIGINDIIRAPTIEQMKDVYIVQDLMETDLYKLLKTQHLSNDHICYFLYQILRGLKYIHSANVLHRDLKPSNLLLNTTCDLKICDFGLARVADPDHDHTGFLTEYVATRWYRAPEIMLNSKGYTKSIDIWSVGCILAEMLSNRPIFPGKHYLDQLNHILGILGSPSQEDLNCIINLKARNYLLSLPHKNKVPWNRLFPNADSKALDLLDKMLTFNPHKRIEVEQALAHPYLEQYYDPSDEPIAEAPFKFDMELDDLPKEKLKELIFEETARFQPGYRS
Description: In an ERK2 enzyme assay, GLUTATHIONE S-TRANSFERASE (GST) FUSION HUMAN ERK2 PROTEIN (manufactured by Carna Biosciences, Inc.), which was produced by using an E. coli expression system, was used.
12 μL of a reaction liquid (2.5 nmol/L ERK2, 100 mmol/L Hepes, 10 mmol/L MgCl2, 1.5 mmol/L DTT, 0.003% Brij35, pH 7.5) including ERK2 protein and a test compound having a predetermined concentration was allowed to stand at room temperature for 15 minutes. Then, 3 μL of a mixture liquid of FL-PEPTIDE8 (5-FAM-IPTSPITTTYFFFKKK-COOH) (manufactured by Caliper Life Sciences), which is substrate peptide, and ATP (manufactured by Sigma-Aldrich Co. LLC.) was added thereto such that the final concentrations thereof became 4.25 μmol/L and 43.1 μmol/L, respectively, and an enzyme reaction was performed by allowing to stand at 25° C. for 120 minutes.
After the reaction, the enzyme reaction was stopped by adding 30 μL of a reaction stopper liquid (100 mmol/L HEPES, 11.2 mmol/L EDTA, 5.6% Brij35, pH 7.5) including a 0.5% COATING REAGENT 8 (trade name, manufactured by Perkin Elmer Inc.) thereto. Then, phosphorylated peptide and non-phosphorylated peptide were separated using LABCHIP EZ READER (trade name, manufactured by Caliper Life Sciences), and the porportion of the phosphorylated peptide was quantified.
The inhibitory activities of the compounds were evaluated using IC50 (50% inhibitory concentration). The IC50 was calculated using XLFIT (trade name, manufactured by ID Business Solutions).

[2] = molecular target: T1, GST fusion human ERK2 protein; assay: ERK2 enzyme assay (2); conditions: read-out: ERK2 enzyme inhibitory activity (2)
How it was run: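 IC50 values come from mobility-shift measurement of phosphorylated versus unphosphorylated 5-FAM peptide substrate after EDTA quench. Beforehand, compound and 1.25 nmol/L E. coli-expressed GST–human ERK2 stood 15 min at room temperature (pH 7.5), then 1 mmol/L ATP and 4.25 μmol/L substrate (final) were added for 120 min at 25 °C.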

[3] = molecular target: T2, human PI3Kα protein (Homo sapiens, UniProt P42336); assay: PI3Kα enzyme assay (ADP-Glo); conditions: read-out: PI3Kα enzyme inhibitory activity
T2 construct: purchased Carna Biosciences, Inc; host or cells: baculovirus expression system
T2 sequence (P42336 whole entry): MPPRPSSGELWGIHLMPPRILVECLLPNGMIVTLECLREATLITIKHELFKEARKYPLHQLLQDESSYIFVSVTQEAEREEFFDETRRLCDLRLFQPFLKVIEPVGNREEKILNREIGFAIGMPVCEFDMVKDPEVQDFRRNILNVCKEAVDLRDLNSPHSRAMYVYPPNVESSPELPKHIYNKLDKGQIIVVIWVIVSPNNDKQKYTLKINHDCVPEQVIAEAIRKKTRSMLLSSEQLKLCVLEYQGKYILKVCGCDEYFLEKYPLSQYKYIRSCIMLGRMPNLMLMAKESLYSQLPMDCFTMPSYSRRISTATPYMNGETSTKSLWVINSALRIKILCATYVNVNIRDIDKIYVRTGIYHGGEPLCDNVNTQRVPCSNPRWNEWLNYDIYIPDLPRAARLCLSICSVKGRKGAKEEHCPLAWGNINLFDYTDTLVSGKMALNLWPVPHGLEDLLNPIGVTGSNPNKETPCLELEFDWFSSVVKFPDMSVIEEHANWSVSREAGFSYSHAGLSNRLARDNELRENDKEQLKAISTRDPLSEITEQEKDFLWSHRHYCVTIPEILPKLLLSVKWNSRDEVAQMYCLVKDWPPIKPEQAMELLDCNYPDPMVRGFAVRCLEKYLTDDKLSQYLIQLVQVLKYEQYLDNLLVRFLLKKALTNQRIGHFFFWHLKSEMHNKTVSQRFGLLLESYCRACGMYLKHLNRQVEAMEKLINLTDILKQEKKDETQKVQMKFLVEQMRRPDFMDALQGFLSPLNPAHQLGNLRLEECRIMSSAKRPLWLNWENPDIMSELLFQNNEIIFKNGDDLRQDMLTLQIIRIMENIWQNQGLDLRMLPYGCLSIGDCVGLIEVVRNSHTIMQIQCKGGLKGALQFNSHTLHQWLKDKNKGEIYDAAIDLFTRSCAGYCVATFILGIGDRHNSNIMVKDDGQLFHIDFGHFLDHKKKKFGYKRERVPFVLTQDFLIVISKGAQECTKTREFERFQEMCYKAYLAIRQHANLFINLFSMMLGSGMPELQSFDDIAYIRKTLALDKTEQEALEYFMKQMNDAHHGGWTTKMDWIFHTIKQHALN
T2 sequence (P27986 whole entry partner): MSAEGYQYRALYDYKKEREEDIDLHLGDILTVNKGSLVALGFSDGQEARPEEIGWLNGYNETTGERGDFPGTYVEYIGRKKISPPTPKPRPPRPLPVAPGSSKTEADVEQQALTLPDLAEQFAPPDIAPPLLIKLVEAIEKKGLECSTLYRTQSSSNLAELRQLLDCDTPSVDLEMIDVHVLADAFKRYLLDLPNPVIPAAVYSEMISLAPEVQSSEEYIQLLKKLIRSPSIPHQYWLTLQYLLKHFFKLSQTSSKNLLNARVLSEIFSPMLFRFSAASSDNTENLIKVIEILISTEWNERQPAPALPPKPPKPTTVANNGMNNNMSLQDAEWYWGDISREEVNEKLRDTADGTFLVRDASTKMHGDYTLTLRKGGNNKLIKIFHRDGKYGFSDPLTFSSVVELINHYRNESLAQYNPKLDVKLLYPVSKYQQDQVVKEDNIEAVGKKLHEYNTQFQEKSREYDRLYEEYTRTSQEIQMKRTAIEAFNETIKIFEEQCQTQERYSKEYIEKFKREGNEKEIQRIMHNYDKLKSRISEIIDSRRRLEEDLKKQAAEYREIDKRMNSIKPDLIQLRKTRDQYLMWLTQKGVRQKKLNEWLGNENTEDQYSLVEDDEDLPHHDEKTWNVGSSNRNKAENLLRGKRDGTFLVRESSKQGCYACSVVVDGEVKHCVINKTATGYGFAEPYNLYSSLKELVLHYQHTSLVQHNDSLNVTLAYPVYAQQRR
How it was run: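 Biotinylated human PI3Kα (baculovirus-expressed, 4.5 nmol/L) pre-incubated 15 min with compound in Tris-HCl pH 7.5, MgCl2, BSA; reaction 60 min at 25° C with 50 μmol/L PIP2 and 100 μmol/L ATP final. ADP quantified by ADP-Glo luminescence; IC50 calculated.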

[4] = 2.5 nmol/L ERK2, ATP 43.1 μmol/L

SMILES: c1ccc(-c2cnc3ccc(Nc4nnc(C5CCCC5)s4)nc3c2)cc1 [Example 0218, 5-Cyclopentyl-N-(7-phenyl-1,5-naphthyridin-2-yl)-1,3,4-thiadiazole-2-amine]
- IC50 ([1]; ERK2 enzyme assay (1)): < 1000 nM

SMILES: COc1ccccc1-c1cnc2ccc(Nc3nnc(C4CCCC4)s3)nc2c1 [Example 0211]
- IC50 ([1]; ERK2 enzyme assay (1)): < 1000 nM

SMILES: COc1cccc(-c2cnc3ccc(Nc4nnc(C5CCCC5)s4)nc3c2)c1 [Example 0212]
- IC50 ([1]; ERK2 enzyme assay (1)): < 1000 nM

SMILES: C#Cc1cnc2ccc(Nc3nnc(C4CCCC4)s3)nc2c1 [Example 0042, 5-cyclopentyl-N-(7-ethynyl-1,5-naphthyridin-2-yl)-1,3,4-thiadiazole-2-amine hydrochloride]
- IC50 [1, 4]: 10000 to 50000 nM

SMILES: c1cn(-c2cc(Nc3cnc4ccc(Nc5nnc(C6CCCC6)s5)nc4c3)ccn2)nn1 [Example 0080]
- IC50 [1, 4]: < 1000 nM

SMILES: Cn1cc(-c2cnc3ccc(Nc4nnc(C(F)(F)F)s4)nc3c2)cn1 [Example 0164]
- IC50 [1, 4]: < 1000 nM

SMILES: Cn1cc(-c2cnc3ccc(Nc4nnc(-c5ccccc5)s4)nc3c2)cn1 [Example 0028]
- IC50 [1, 4]: < 1000 nM

SMILES: COc1cccc(-c2ccnc3ccc(Nc4nnc(C(C)C)s4)nc23)c1 [Example 0271]
- IC50 ([1]; ERK2 enzyme assay (1)): < 1000 nM

SMILES: CSc1nnc(Nc2ccc3ncc(-c4cnn(C)c4)cc3n2)s1 [Example 0174, N-(7-(1-methyl-1H-pyrazol-4-yl)-1,5-naphthyridin-2-yl)-5-(methylthio)-1,3,4-thiadiazole-2-amine]
- IC50 [1, 4]: < 1000 nM

SMILES: Cc1nnc(Nc2ccc3ncc(-c4cnn(C)c4)cc3n2)o1 [Example 0031, 5-methyl-N-(7-(1-methyl-1H-pyrazol-4-yl)-1,5-naphthyridin-2-yl)-1,3,4-oxadiazole-2-amine hydrochloride]
- IC50 [1, 4]: 1000 to 10000 nM

SMILES: COc1ccc(-c2cnc3ccc(Nc4nnc(C5CCCC5)s4)nc3c2)cc1 [Example 0213]
- IC50 ([1]; ERK2 enzyme assay (1)): < 1000 nM

SMILES: COc1ccc(Nc2ccc3ncc(-c4cnn(C)c4)cc3n2)nn1 [Example 0149]
- IC50 [1, 4]: 1000 to 10000 nM

SMILES: CC(C)c1cnnc(Nc2ccc3ncc(-c4ccnc(N)c4)cc3n2)c1 [Example 0602, 7-(2-aminopyridin-4-yl)-N-(5-isopropylpyridazin-3-yl)-1,5-naphthyridine-2-amine]
- IC50 ([2]; ERK2 enzyme assay (2)): < 1000 nM
- IC50 [3]: < 1000 nM

SMILES: CC(C)c1cnnc(Nc2ccc3ncc(-c4cnn(CCCN5CCN(c6ccncc6)CC5)c4)cc3n2)c1 [Example 0445]
- IC50 ([2]; ERK2 enzyme assay (2)): < 1000 nM
- IC50 [3]: < 1000 nM

SMILES: CC(C)c1cnnc(Nc2ccc3ncc(N4CCOC[C@H]4C)cc3n2)c1 [Example 0762, (R)-N-(5-isopropylpyridazin-3-yl)-7-(3-methylmorpholino)-1,5-naphthyridine-2-amine]
- IC50 ([2]; ERK2 enzyme assay (2)): < 1000 nM
- IC50 [3]: < 1000 nM

SMILES: CC(C)c1cnnc(Nc2ccc3ncc(-c4cn(C)nc4C4CN(C(=O)OC(C)(C)C)C4)cc3n2)c1 [Example 0779, tert-butyl 3-(4-(6-((5-isopropylpyridazin-3-yl)amino)-1,5-naphthyridin-3-yl)-1-methyl-1H-pyrazol-3-yl)azetidine-1-carboxylate]
- IC50 ([2]; ERK2 enzyme assay (2)): < 1000 nM
- IC50 [3]: < 1000 nM

SMILES: CC(C)c1cnnc(Nc2ccc3ncc(-c4ccc(O)nc4)cc3n2)c1 [Example 0592]
- IC50 ([2]; ERK2 enzyme assay (2)): < 1000 nM
- IC50 [3]: < 1000 nM

SMILES: COc1ncccc1-c1cnc2ccc(Nc3cc(C(C)C)cnn3)nc2c1 [Example 0591]
- IC50 ([2]; ERK2 enzyme assay (2)): < 1000 nM
- IC50 [3]: 1000 to 10000 nM

SMILES: COCCNc1nn(C)cc1-c1cnc2ccc(Nc3cc(C(C)C)cnn3)nc2c1 [Example 0946]
- IC50 [2]: < 1000 nM
- IC50 [3]: < 1000 nM

SMILES: CC(C)c1cnnc(Nc2ccc3ncc(-c4cn(C)nc4COc4ccccc4)cc3n2)c1 [Example 0803]
- IC50 ([2]; ERK2 enzyme assay (2)): < 1000 nM
- IC50 [3]: < 1000 nM

SMILES: CNC(=O)c1cnc2ccc(Nc3cc(C(C)C)cnn3)nc2c1 [Example 0642]
- IC50 ([2]; ERK2 enzyme assay (2)): < 1000 nM
- IC50 [3]: 1000 to 10000 nM

SMILES: CC(C)c1cnnc(Nc2ccc3ncc(-c4cnn(CCOC5CN(Cc6ccccc6)C5)c4)cc3n2)c1 [Example 0743]
- IC50 ([2]; ERK2 enzyme assay (2)): < 1000 nM
- IC50 [3]: < 1000 nM

SMILES: CC(C)c1cnnc(Nc2ccc3ncc(NC4(C)CCC4)cc3n2)c1 [Example 0888]
- IC50 ([2]; ERK2 enzyme assay (2)): 1000 to 10000 nM
- IC50 [3]: 1000 to 10000 nM

SMILES: CC(C)c1cnnc(Nc2ccc3ncc(NS(C)(=O)=O)cc3n2)c1 [Example 0840, N-(6-((5-isopropylpyridazin-3-yl)amino)-1,5-naphthyridin-3-yl)methane sulfonamide]
- IC50 ([2]; ERK2 enzyme assay (2)): 1000 to 10000 nM
- IC50 [3]: 1000 to 10000 nM

SMILES: CC(C)c1cnnc(Nc2ccc3ncc(N4C5CCC4COC5)cc3n2)c1 [Example 0901]
- IC50 [2]: < 1000 nM
- IC50 [3]: 1000 to 10000 nM

SMILES: CC(C)c1cnnc(Nc2ccc3ncc(-c4cn(C)nc4-c4ccc(OCCN(C)C)cc4)cc3n2)c1 [Example 0774]
- IC50 ([2]; ERK2 enzyme assay (2)): < 1000 nM
- IC50 [3]: < 1000 nM

SMILES: COC1CN(c2cnc3ccc(Nc4cc(C(C)C)cnn4)nc3c2)C1 [Example 0853]
- IC50 ([2]; ERK2 enzyme assay (2)): < 1000 nM
- IC50 [3]: < 1000 nM

SMILES: CC(C)c1cnnc(Nc2ccc3ncc(-c4cnn(CCCN5CC(N(C)S(C)(=O)=O)C5)c4)cc3n2)c1 [Example 0721, N-(1-(3-(4-(6-((5-isopropylpyridazin-3-yl)amino)-1,5-naphthyridin-3-yl)-1H-pyrazol-1-yl)propyl)azetidin-3-yl)-N-methylmethane sulfonamide]
- IC50 ([2]; ERK2 enzyme assay (2)): < 1000 nM
- IC50 [3]: < 1000 nM

SMILES: CC(C)OC1CN(c2cnc3ccc(Nc4cc(C(C)C)cnn4)nc3c2)C1 [Example 0863]
- IC50 ([2]; ERK2 enzyme assay (2)): < 1000 nM
- IC50 [3]: 1000 to 10000 nM

SMILES: CC(C)c1cnnc(Nc2ccc3ncc(/C=C/c4cccnc4)cc3n2)c1 [Example 0648, (E)-N-(5-isopropylpyridazin-3-yl)-7-(2-(pyridin-3-yl)vinyl)-1,5-naphthyridine-2-amine]
- IC50 ([2]; ERK2 enzyme assay (2)): < 1000 nM
- IC50 [3]: < 1000 nM

SMILES: CC(C)c1cnnc(Nc2ccc3nccc(-c4cnn(C)c4)c3n2)c1 [Example 0447, N-(5-isopropylpyridazin-3-yl)-8-(1-methyl-1H-pyrazol-4-yl)-1,5-naphthyridine-2-amine]
- IC50 ([2]; ERK2 enzyme assay (2)): 1000 to 10000 nM
- IC50 [3]: < 1000 nM

SMILES: CC(C)c1cnnc(Nc2ccc3ncc(N4CCCN(C)CC4)cc3n2)c1 [Example 0871]
- IC50 ([2]; ERK2 enzyme assay (2)): 1000 to 10000 nM
- IC50 [3]: 1000 to 10000 nM

SMILES: C=C(C)c1cnnc(Nc2ccc3ncc(-c4cnn(C)c4)cc3n2)c1 [Example 0787, 7-(1-Methyl-1H-pyrazol-4-yl)-N-(5-(prop-1-en-2-yl)pyridazin-3-yl)-1,5-naphthyridine-2-amine]
- IC50 ([2]; ERK2 enzyme assay (2)): < 1000 nM
- IC50 [3]: < 1000 nM

SMILES: CCOC1CN(CCCn2cc(-c3cnc4ccc(Nc5cc(C(C)C)cnn5)nc4c3)cn2)C1 [Example 0676, N-(5-isopropylpyridazin-3-yl)-7-(1-(3-(3-ethoxyazetidin-1-yl)propyl)-1H-pyrazol-4-yl)-1,5-naphthyridine-2-amine]
- IC50 ([2]; ERK2 enzyme assay (2)): < 1000 nM
- IC50 [3]: < 1000 nM

SMILES: COc1c(-c2cnn(C)c2)cnc2ccc(Nc3cc(C(C)C)cnn3)nc12 [Example 0914, N-(5-isopropylpyridazin-3-yl)-8-methoxy-7-(1-methyl-1H-pyrazol-4-yl)-1,5-naphthyridine-2-amine]
- IC50 [2]: < 1000 nM
- IC50 [3]: < 1000 nM

SMILES: COc1ncccc1Cn1cc(-c2cnc3ccc(Nc4cc(C(C)C)cnn4)nc3c2)cn1 [Example 0454]
- IC50 ([2]; ERK2 enzyme assay (2)): < 1000 nM
- IC50 [3]: < 1000 nM

SMILES: CC(C)c1cnnc(Nc2ccc3ncc(-c4cnn(CCCN5CC(OCCF)C5)c4)cc3n2)c1 [Example 0713, 7-(1-(3-(3-(2-Fluoroethoxy)azetidin-1-yl)propyl)-1H-pyrazol-4-yl)-N-(5-isopropylpyridazin-3-yl)-1,5-naphthyridine-2-amine]
- IC50 ([2]; ERK2 enzyme assay (2)): < 1000 nM
- IC50 [3]: < 1000 nM

SMILES: COC(CCn1cc(-c2cnc3ccc(Nc4cc(C(C)C)cnn4)nc3c2)cn1)OC [Example 0646, 7-(1-(3,3-dimethoxypropyl)-1H-pyrazol-4-yl)-N-(5-isopropylpyridazin-3-yl)-1,5-naphthyridine-2-amine]
- IC50 ([2]; ERK2 enzyme assay (2)): < 1000 nM
- IC50 [3]: < 1000 nM

SMILES: COC[C@@H]1CCCN1c1cnc2ccc(Nc3cc(C(C)C)cnn3)nc2c1 [Example 0874]
- IC50 ([2]; ERK2 enzyme assay (2)): < 1000 nM
- IC50 [3]: < 1000 nM

SMILES: COc1ccc(OCc2nn(C)cc2-c2cnc3ccc(Nc4cc(C(C)C)cnn4)nc3c2)cc1 [Example 0806]
- IC50 ([2]; ERK2 enzyme assay (2)): < 1000 nM
- IC50 [3]: < 1000 nM

SMILES: COCC(C)(C)c1cnnc(Nc2ccc3ncc(-c4cnn(C)c4)cc3n2)c1 [Example 0562]
- IC50 ([2]; ERK2 enzyme assay (2)): < 1000 nM
- IC50 [3]: < 1000 nM

SMILES: Cc1ncc(-c2nn(C)cc2-c2cnc3ccc(Nc4cc(C(C)C)cnn4)nc3c2)s1 [Example 0587]
- IC50 ([2]; ERK2 enzyme assay (2)): < 1000 nM
- IC50 [3]: < 1000 nM
